Measurements taken from patent US20180116983A1, “COMPOUNDS FOR TREATING DISORDERS ASSOCIATED WITH BK CHANNEL MODULATION” (Canbex Therapeutics Limited, priority 2015, published 2018).

Legend:
BK channel [1] = biological target: T1, BK channel (Homo sapiens, UniProt Q12791); test: Inside-out patch clamp (single channel) on EA.hy926 cells; format: cell-based; set-up: The human umbilical vein derived endothelial cell line, EA.hy926; endogenous in cells; host or cells: EA.hy926 human endothelial cell line; details: human EA.hy926 cells, calcium dependent
Experimental: The human umbilical vein derived endothelial cell line, EA.hy926 (Edgell et al., Proc Natl Acad Sci USA. 1983 June; 80(12): 3734-7) at passage >45 was grown in DMEM containing 10% FCS and 1% HAT (5 mM hypoxanthine, 20 μM aminopterin, 0.8 mM thymidine) and cells were maintained in an incubator at 37° C. in 5% CO2 atmosphere. Cells were plated on either 10 mm (for patch-clamp recordings) or 30 mm glass cover slips (for Ca^2+ measurements).
Single-channel recordings were obtained from excised inside-out membrane patches in symmetrical solutions. The pipettes were filled with (in mM) 140 KCl, 10 HEPES, 1 MgCl2, 5 EGTA, 4,931 CaCl2 with pH 7.2 by adding KOH (i.e. 10 μM free Ca^2+, G. Droogmans, Leuven, Belgium; ftp://ftp.cc.kuleuven.ac.be/pub/droodmans/cabuf.zip). Cells were perfused with a standard bath solution containing (in mM) 140 NaCl, 5 KCl, 1.2 MgCl2, 10 HEPES, 10 glucose, 2.4 CaCl2. Following gigaseal formation, bath solution was switched to the following (in mM) 140 KCl, 10 HEPES, 1 MgCl2, 5 EGTA and a desired free Ca^2+ concentration which was adjusted by adding different amounts of CaCl2 calculated by the program CaBuf. pH was adjusted to 7.2 by adding KOH. Membrane currents and potential were recorded using a List EPC7 amplifier (List, Germany) and pClamp (version 8.2, Axon Instruments) software.
Target sequence in this assay (Q12791 1-1178 isoform Q12791-5): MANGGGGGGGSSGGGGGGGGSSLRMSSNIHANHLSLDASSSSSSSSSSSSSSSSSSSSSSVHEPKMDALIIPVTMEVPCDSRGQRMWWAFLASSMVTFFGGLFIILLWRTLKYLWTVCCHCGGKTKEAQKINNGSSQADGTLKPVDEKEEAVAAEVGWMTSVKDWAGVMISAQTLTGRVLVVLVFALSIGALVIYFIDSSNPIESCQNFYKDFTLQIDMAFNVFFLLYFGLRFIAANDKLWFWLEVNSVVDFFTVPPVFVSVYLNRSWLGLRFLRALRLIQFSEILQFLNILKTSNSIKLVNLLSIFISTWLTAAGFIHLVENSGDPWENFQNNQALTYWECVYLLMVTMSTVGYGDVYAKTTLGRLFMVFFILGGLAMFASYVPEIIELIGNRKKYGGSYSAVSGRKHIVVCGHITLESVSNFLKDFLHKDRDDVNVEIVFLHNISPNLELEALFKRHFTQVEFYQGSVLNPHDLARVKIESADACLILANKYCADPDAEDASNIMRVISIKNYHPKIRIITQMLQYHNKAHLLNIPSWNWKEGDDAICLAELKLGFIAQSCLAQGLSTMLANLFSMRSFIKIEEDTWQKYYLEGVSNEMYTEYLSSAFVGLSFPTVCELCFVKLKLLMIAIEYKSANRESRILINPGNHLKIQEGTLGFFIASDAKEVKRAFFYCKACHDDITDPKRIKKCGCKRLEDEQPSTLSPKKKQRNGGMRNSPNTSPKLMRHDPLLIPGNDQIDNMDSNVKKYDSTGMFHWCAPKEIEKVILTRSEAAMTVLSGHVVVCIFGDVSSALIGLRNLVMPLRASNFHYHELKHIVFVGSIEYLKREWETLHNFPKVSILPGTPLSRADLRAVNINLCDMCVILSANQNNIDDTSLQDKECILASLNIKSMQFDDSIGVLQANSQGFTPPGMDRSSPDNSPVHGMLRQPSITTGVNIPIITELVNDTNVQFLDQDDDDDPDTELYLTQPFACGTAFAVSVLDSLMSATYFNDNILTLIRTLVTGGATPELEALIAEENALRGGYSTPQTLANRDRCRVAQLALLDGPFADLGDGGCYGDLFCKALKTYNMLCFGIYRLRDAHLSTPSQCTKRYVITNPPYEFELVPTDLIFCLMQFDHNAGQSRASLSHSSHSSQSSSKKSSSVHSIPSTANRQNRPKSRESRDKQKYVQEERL
Target sequence in this assay (Q86W47 whole entry partner): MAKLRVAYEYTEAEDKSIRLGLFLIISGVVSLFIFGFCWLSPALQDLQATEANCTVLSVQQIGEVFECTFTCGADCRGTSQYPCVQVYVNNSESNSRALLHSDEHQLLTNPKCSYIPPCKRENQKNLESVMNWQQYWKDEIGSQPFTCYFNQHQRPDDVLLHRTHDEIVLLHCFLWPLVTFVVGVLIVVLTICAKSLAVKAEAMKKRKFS

KNCMA1 = biological target: T2, KNCMA1 (Sus scrofa, UniProt O18866); test: Whole-cell current in primary pig aortic endothelial cells; format: cell-based
T2 construct: endogenous in cells; host or cells: primary pig aortic endothelial cells
T2 sequence (O18866 whole entry): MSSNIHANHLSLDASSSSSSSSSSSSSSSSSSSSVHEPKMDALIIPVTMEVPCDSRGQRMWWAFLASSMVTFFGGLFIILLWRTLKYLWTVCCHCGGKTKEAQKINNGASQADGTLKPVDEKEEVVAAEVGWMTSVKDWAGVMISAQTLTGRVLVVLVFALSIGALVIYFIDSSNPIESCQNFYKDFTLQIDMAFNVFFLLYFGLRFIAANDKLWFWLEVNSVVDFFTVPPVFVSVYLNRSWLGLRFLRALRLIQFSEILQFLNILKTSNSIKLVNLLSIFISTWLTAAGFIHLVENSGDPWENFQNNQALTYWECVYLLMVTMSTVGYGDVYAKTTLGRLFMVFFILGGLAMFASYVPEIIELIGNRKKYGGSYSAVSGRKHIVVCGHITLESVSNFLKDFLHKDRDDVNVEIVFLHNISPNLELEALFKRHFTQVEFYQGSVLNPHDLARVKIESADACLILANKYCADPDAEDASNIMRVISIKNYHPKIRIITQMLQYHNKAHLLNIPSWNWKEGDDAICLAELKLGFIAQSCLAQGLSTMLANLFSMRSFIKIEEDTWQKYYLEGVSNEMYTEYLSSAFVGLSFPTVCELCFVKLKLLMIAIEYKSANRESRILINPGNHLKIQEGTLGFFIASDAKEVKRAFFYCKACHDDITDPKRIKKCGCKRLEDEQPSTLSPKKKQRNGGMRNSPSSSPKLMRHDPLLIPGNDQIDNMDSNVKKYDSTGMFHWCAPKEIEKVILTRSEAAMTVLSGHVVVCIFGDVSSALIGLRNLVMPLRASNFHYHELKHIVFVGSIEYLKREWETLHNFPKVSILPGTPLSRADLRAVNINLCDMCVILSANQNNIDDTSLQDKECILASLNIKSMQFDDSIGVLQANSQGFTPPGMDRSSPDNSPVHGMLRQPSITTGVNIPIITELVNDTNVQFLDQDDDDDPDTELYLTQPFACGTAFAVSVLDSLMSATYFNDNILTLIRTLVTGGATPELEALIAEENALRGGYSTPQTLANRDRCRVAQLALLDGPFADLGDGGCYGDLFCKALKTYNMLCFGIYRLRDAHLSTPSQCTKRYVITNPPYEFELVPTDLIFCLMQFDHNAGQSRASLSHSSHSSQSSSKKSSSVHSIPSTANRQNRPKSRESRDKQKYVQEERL
From the text: Pig aortic endothelial cells only express KNCMAI and not KNCMB1-4 (Papassotiriou et al). Thus, the absence of stimulation indicates a lack of effect on KNCMA1.

[2] = test system: OVA- and HDM-sensitized mice; details: cited from earlier work
[3] = test system: murine ex vivo lung slices; details: cited from earlier work
isolated hearts = details: after cold cardioplegic arrest; cited from earlier work
BK channel [4] = biological target: T1, BK channel; set-up: host or cells: human airway smooth muscle (ASM) cells; details: human ASM cells; cited from earlier work
Target sequence in this assay (Q12791 whole entry): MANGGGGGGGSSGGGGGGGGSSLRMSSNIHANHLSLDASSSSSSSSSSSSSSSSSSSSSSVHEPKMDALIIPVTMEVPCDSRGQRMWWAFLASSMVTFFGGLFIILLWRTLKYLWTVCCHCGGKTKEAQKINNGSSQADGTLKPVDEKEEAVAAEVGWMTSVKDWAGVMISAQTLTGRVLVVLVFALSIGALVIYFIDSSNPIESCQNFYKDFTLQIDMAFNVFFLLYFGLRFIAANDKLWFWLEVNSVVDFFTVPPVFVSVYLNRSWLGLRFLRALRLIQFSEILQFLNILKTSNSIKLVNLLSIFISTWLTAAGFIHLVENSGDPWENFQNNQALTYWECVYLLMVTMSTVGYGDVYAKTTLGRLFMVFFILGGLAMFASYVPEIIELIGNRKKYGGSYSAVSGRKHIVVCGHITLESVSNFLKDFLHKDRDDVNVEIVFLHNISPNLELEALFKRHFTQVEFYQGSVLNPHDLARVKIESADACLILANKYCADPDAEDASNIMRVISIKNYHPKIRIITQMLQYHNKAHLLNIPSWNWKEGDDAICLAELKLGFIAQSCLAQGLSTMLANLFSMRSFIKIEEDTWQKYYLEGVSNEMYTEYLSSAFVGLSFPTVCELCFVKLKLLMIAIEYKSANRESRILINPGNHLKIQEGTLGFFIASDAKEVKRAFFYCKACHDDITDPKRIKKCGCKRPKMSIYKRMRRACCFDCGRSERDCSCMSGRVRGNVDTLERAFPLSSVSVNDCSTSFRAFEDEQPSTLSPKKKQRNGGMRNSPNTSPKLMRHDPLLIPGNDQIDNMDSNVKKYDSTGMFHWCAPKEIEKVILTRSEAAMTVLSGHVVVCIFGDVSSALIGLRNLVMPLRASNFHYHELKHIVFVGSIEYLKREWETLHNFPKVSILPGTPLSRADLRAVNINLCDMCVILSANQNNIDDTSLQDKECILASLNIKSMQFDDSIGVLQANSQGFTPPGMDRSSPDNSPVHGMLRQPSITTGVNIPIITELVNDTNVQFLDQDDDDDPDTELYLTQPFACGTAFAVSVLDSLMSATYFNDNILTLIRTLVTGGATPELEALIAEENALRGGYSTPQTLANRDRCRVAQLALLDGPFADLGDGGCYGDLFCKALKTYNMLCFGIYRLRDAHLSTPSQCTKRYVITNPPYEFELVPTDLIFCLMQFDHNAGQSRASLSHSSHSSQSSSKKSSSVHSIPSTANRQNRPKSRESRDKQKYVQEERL

[5] = test system: salicylate-induced tinnitus in rats; details: cited from earlier work
Fmr1 knockout mouse = details: cited from earlier work
maxi-K channels = maxi-K channels (Homo sapiens, UniProt Q12791); details: cited from earlier work
maxi-K channels, sequence (Q12791 whole entry): as above

[6] = test system: rat models of permanent large-vessel stroke; details: cited from earlier work
[7] = biological target: T3, BKCa channels formed by the exon-less alpha subunit (Homo sapiens, UniProt Q12791); test: Whole-cell BKCa current in HEK293 cells expressing the alpha subunit alone; format: cell-based; details: HEK293
T3 construct: expressed in transfected cells; host or cells: HEK293
T3 sequence (Q12791 1-1178 isoform Q12791-5): as the sequence (Q12791 1-1178 isoform Q12791-5) above

[8] = test system: C57BL/6.Fmr1 knockout mice; test: Contextual fear conditioning in Fmr1 knockout mice; format: in vivo, mouse; details: wildtype mice; 2 mg/kg
Experimental: Animals: C57BL/6.J. Fmr1-K02 mice, which have a deletion of the promoter and exonl of the Fmr1 gene (Mientjes et al., 2006) and C57BL/6J wild type (WT) were originated from the Jackson laboratory (Ann Harbor, USA). Mice were housed in groups (4-6 per cage) and all animals were provided with ad libitum food and water unless otherwise stated. Mice were maintained on a 12 h light/12 h dark cycle (lights off 19:00 to 7:00) in a temperature-controlled environment (21±1° C.). Testing was conducted in the light phase. Mice were housed in commercial cages and experiments were performed in line with the United Kingdom Animals (Scientific procedures) Act 1986. All experiments were conducted with experimentors blind to genotype and drug treatment. Each experimental group contained 10 animals.
Drug Treatment: VSN16R was dissolved in saline for injection intravenously via a tail vein using 2 mg/kg a 30 g needle in a volume of 0.1 ml. Animals were inspected for differences in coat appearance, to detect whether any piloerection was present. The eye condition (runny eyes or porphyria, ptosis), gait appearance, tremor, tail tone, reactivity to handling was assessed to detect adverse behavioural effect.
Contextual fear conditioning: Animals are trained to expect an electroshock treatment within a defined environment, such that on subsequent presentation of the environment, freezing behaviours are induced. […]

mesenteric arteries = details: cited from earlier work

CC(NC(=O)c1cccc(/C=C\CCCC(=O)N(C)C)c1)C(=O)O [VSN44R, (Z)-(3-(6-(dimethylamino)-6-oxohex-1-en-1-yl)benzoyI)-D-alanine]
activation of the response of the channel (BK channel [1]): activation of the response of the channel

Clc1ccccc1C(c1ccccc1)(c1ccccc1)n1cccn1 [TRAM-34, reference compound]
effect on residual current (KNCMA1; IK channel blocker after VSN16R): a minor effect on this residual current

CC(=O)c1c(O)c(C)c(O)c(Cc2c(O)c3c(c(C(=O)/C=C/c4ccccc4)c2O)OC(C)(C)C=C3)c1O [rottlerin]
reduction in Th2 cytokines ([2]; bronchoalveolar lavage fluid): 20-35%
reduction in inflammatory cells ([2]; bronchoalveolar lavage fluid): 35-40%
reduction of AHR ([2]; intravenous, within 5 minutes, OVA-asthma mice, P<0.01): 45%
methacholine-induced airway hyperreactivity (AHR) ([2]; systemic administration): reduces methacholine-induced airway hyperreactivity
frequency of acetylcholine-induced Ca2+ oscillations [3]: reduces the frequency of acetylcholine-induced Ca^2+ oscillations
cardiac contractile performance and coronary perfusion (isolated hearts): increases cardiac contractile performance and coronary perfusion
BK channel activity (BK channel [4]): increases BK channel activity

COc1ccc(Cl)cc1[C@]1(F)C(=O)Nc2cc(C(F)(F)F)ccc21 [BMS-204352]
behavioural effects of tinnitus ([5]; 10 mg/kg): abolished
FXS-associated phenotypes (Fmr1 knockout mouse): could inhibit the FXS-associated phenotypes
opening of maxi-K channels (maxi-K channels): potent, effective and uniquely Ca^2+-sensitive opener
cortical neuroprotection ([6]; administered two hours after onset of occlusion): provided significant levels of cortical neuroprotection
blood pressure or cerebral blood flow ([6]; rat, in vivo): had no effect on blood pressure or cerebral blood flow

CC(C)(O)[C@H]1O[C@H]2CC[C@@]3(C)[C@@](O)(CC[C@H]4Cc5c([nH]c6ccccc56)[C@@]43C)C2=CC1=O [paxilline, (2R,4bS,6aS,12bS,12cR,14aS)-5,6,6a,7,12,12b,12c,13,14,14a-Decahydro-4b-hydroxy-2-(1-hydroxy-1-methylethyl)-12b,12c-dimethyl-2H-pyrano[2″,3″:5′,6′]benz[1′,2′:6,7]indeno[1,2-b]indol-3(4bH)-one, reference compound]
suppression of BKCa current ([7]; 10 μM): suppressed
suppression of BKCa current ([7]; 10 μM, listed as Paxilline): consistently suppressed the BKCa current

CC(CO)NC(=O)c1cccc(/C=C\CCCC(=O)N(C)C)c1 (centres unmarked) [VSN16]
effect on current (KNCMA1; no BK beta chains): does not stimulate pig aortic endothelial cells
fear conditioning and digging behaviour in wildtype mice [8]: exhibited no-inhibitory effect
relaxation of mesenteric arteries (mesenteric arteries): relaxed mesenteric arteries in an endothelium-dependent manner
vasorelaxation in the presence of rimonabant, AM 251 or O-1918 (mesenteric arteries; high concentrations of the antagonists): antagonized

COc1ccc(Cl)cc1[C@@]1(F)C(=O)Nc2cc(C(F)(F)F)ccc21 [R-Maxipost]
effect on tinnitus ([5]; dose not given): maintained the positive effect on tinnitus

Nc1ncc(Cc2ccc(Br)cc2)s1 [NS19504, 5-[(4-bromophenyl)methyl]-2-thiazolannine, reference compound]
enhancement of BKCa current ([7]; 10 μM, steps −40 mV to +70 mV, 200 nM calcium): approximately doubled

CC[N+](CC)(CC)CC [TEA, reference compound]
suppression of BKCa current ([7]; 5 mM): consistently suppressed the BKCa current
